Reference: patent publication US11230538B2, “Herbicides” (SYNGENTA PARTICIPATIONS AG, priority 2016, dated 2022)

Assays:
Type in all cases: in vivo
[1] = system: Alopecurus myosuroides (ALOMY); assay: B1 Pre-emergence herbicidal activity; set-up: key: 5=total damage to plant; 0=no damage to plant; conditions: pre-emergence application, rate 1000 g/ha, evaluated after 13 days
Description: (§1) Seeds of a variety of test species were sown in standard soil in pots: Triticum aestivium (TRZAW), Avena fatua (AVEFA), Alopecurus myosuroides (ALOMY), Echinochloa crus-galli (ECHCG), Lolium perenne (LOLPE), Zea Mays (ZEAMX), Abutilon theophrasti (ABUTH), Amaranthus retroflexus (AMARE) and Setaria fabenr (SETFA). After cultivation for one day (pre-emergence) under controlled conditions in a glasshouse (at 24/16° C., day/night; 14 hours light; 65% humidity), the plants were sprayed with an aqueous spray solution derived from the formulation of the technical active ingredient in acetone I water (50:50) solution containing 0.5% Tween 20 (polyoxyethelyene sorbitan monolaurate, CAS RN 9005-64-5). The test plants were then grown in a glasshouse under controlled conditions (at 24/16° C., day/night; 14 hours light; 65% humidity) and watered twice daily. After 13 days, the test was evaluated (5=total damage to plant; 0=no damage to plant).

Avena fatua (AVEFA) [2] = assay: B1 Pre-emergence herbicidal activity; set-up: key: 5=total damage to plant; 0=no damage to plant; conditions: pre-emergence application, rate 1000 g/ha, evaluated after 13 days
Description: as §1

[3] = system: Triticum aestivium (TRZAW); assay: B1 Pre-emergence herbicidal activity; set-up: key: 5=total damage to plant; 0=no damage to plant; conditions: pre-emergence application, rate 1000 g/ha, evaluated after 13 days
Description: as §1

[4] = system: Echinochloa crus-galli (ECHCG); assay: B1 Pre-emergence herbicidal activity; set-up: key to Pre-emergence herbicidal activity, ECHCG (damage score 0-5): 5=total damage to plant; 0=no damage to plant; conditions: pre-emergence application, rate 1000 g/ha, evaluated after 13 days
Description: as §1

Lolium perenne (LOLPE) [5] = assay: B1 Pre-emergence herbicidal activity; set-up: key to Pre-emergence herbicidal activity, LOLPE (damage score 0-5): 5=total damage to plant; 0=no damage to plant; conditions: pre-emergence application, rate 1000 g/ha, evaluated after 13 days
Description: as §1

Setaria fabenr (SETFA) = assay: B1 Pre-emergence herbicidal activity; set-up: key to Pre-emergence herbicidal activity, SETFA (damage score 0-5): 5=total damage to plant; 0=no damage to plant; conditions: pre-emergence application, rate 1000 g/ha, evaluated after 13 days
Description: as §1

Avena fatua (AVEFA) [6] = assay: B2 Post-emergence herbicidal activity; conditions: post-emergence application, rate 1000 g/ha, evaluated after 13 days
Description: (§2) Seeds of a variety of test species were sown in standard soil in pots: Triticum aestivium (TRZAW), Avena fatua (AVEFA), Alopecurus myosuroides (ALOMY), Echinochloa crus-galli (ECHCG), Lolium perenne (LOLPE), Zea Mays (ZEAMX), Abutilon theophrasti (ABUTH), Amaranthus retroflexus (AMARE) and Setaria fabenri (SETFA). After 8 days cultivation (post-emergence) under controlled conditions in a glasshouse (at 24/16° C., day/night; 14 hours light; 65% humidity), the plants were sprayed with an aqueous spray solution derived from the formulation of the technical active ingredient in acetone I water (50:50) solution containing 0.5% Tween 20 (polyoxyethelyene sorbitan monolaurate, CAS RN 9005-64-5). The test plants were then grown in a glasshouse under controlled conditions (at 24/16° C., day/night; 14 hours light; 65% humidity) and watered twice daily. After 13 days, the test was evaluated (5=total damage to plant; 0=no damage to plant).

[7] = system: Echinochloa crus-galli (ECHCG); assay: B2 Post-emergence herbicidal activity; set-up: key to Post-emergence herbicidal activity, ECHCG (damage score 0-5): 5=total damage to plant; 0=no damage to plant; conditions: post-emergence application, rate 1000 g/ha, evaluated after 13 days
Description: as §2

Lolium perenne (LOLPE) [8] = assay: B2 Post-emergence herbicidal activity; conditions: post-emergence application, rate 1000 g/ha, evaluated after 13 days
Description: as §2

[9] = system: Alopecurus myosuroides (ALOMY); assay: B2 Post-emergence herbicidal activity; set-up: key: 5=total damage to plant; 0=no damage to plant; conditions: post-emergence application, rate 1000 g/ha, evaluated after 13 days
Description: as §2

[10] = system: Triticum aestivium (TRZAW); assay: B2 Post-emergence herbicidal activity; set-up: key: 5=total damage to plant; 0=no damage to plant; conditions: post-emergence application, rate 1000 g/ha, evaluated after 13 days
Description: as §2

Setaria fabenri (SETFA) = assay: B2 Post-emergence herbicidal activity; set-up: key: 5=total damage to plant; 0=no damage to plant; conditions: post-emergence application, rate 1000 g/ha, evaluated after 13 days
Description: as §2

| SMILES | Pre-emergence herbicidal activity, ALOMY (damage score 0-5) [1] | Pre-emergence herbicidal activity, AVEFA (damage score 0-5) (Avena fatua (AVEFA) [2]) | Pre-emergence herbicidal activity, TRAZW (damage score 0-5) [3] | Pre-emergence herbicidal activity, ECHCG (damage score 0-5) [4] | Pre-emergence herbicidal activity, LOLPE (damage score 0-5) (Lolium perenne (LOLPE) [5]) | Pre-emergence herbicidal activity, SETFA (damage score 0-5) (Setaria fabenr (SETFA)) | Post-emergence herbicidal activity, AVEFA (damage score 0-5) (Avena fatua (AVEFA) [6]) | Post-emergence herbicidal activity, ECHCG (damage score 0-5) [7] | Post-emergence herbicidal activity, LOLPE (damage score 0-5) (Lolium perenne (LOLPE) [8]) | Post-emergence herbicidal activity, ALOMY (damage score 0-5) [9] | Post-emergence herbicidal activity, TRAZW (damage score 0-5) [10] | Post-emergence herbicidal activity, SETFA (damage score 0-5) (Setaria fabenri (SETFA)) |
| --- | --- | --- | --- | --- | --- | --- | --- | --- | --- | --- | --- | --- |
| CCCC(=O)Nc1ccc(-c2cncc(F)c2)nc1C(F)(F)F [Compound C22] | 0 | 2 | 0 | 4 | 1 | 5 | 3 | 4 | 2 | 0 | 0 |  |
| CCC(=O)Nc1ccc(-c2cncc(F)c2)nc1C(F)(F)F [Compound C13] | 1 | 2 | 0 | 4 | 3 | 5 | 4 | 5 | 4 | 1 | 0 | 5 |
| O=C(Nc1ccc(-c2cncc(F)c2)nc1C(F)(F)F)c1ccccc1 [Compound C14] | 2 | 1 | 0 | 5 | 2 | 4 | 4 | 5 | 4 | 1 | 1 | 5 |
| CC(C)C(=O)Nc1ccc(-c2cncc(Cl)c2)nc1C(F)(F)F [Compound C12] | 0 | 0 | 0 | 2 | 1 | 4 | 3 | 5 | 2 | 1 | 0 | 5 |
| CCC(=O)N(COCC(C)(C)C)c1ccc(-c2cncc(F)c2)nc1C(F)(F)F [Compound C99] | 0 | 1 | 0 | 2 | 1 | 5 | 2 | 4 | 2 | 0 | 0 | 5 |
| O=C(Nc1ccc(-c2cncc(F)c2)nc1C(F)(F)F)C1CC1 [Compound C59] | 0 | 3 | 0 | 4 | 1 | 5 | 3 | 5 | 3 | 1 | 0 | 4 |
| O=C(Nc1ccc(-c2cncnc2)nc1C(F)(F)F)c1ccccc1 [Compound C17] | 0 | 3 | 0 | 4 | 1 | 5 | 3 | 5 | 2 | 0 | 0 |  |
| CCC(=O)Nc1ccc(-c2cncnc2)nc1C#N [Compound C116] | 0 | 1 |  | 3 | 0 | 5 | 2 | 4 | 1 | 0 | 0 | 5 |
| O=C(CC1CCCCC1)Nc1ccc(-c2cncc(F)c2)nc1C(F)(F)F [Compound C19] | 0 | 2 | 0 | 3 | 0 | 5 | 3 | 4 | 1 | 0 | 0 |  |
| O=C(Nc1ccc(-c2cncc(F)c2)nc1C(F)(F)F)C1CCCCC1 [Compound C20] | 0 | 2 | 0 | 4 | 0 | 5 | 3 | 4 | 2 | 0 | 0 |  |
| O=C(Nc1ccc(-c2cncc(F)c2)nc1C(F)(F)F)C1CCC1 [Compound C21] | 0 | 2 | 0 | 4 | 1 | 5 | 3 | 5 | 2 | 0 | 0 |  |
